Laboratory results from US20250382298A1, “NITROGEN-CONTAINING COMPOUND AND USE THEREOF” (SUZHOU GENHOUSE BIO CO., LTD., priority 2022, published 2025).
Where two headings read alike, the source gives them in different places.

Key:
KIF18A = KIF18A (Homo sapiens (Human), UniProt Q8NI77); experiment: KIF18A enzymatic activity inhibition, ADP-Glo kit; assay type: biochemical; conditions: 4 nM KIF18A, 30 μM ATP
Method: In this experiment, an ADP-Glo kit was used to detect the inhibitory activity of the compounds against KIF18A. Each compound was prepared into a 10 mM stock solution with DMSO, which was then diluted at 1:5 to obtain 9 gradients with the initial final concentration set at 10 μM. Meanwhile, a control group and a blank group were also set up. The reaction buffer consisted of 15 mM Tris (pH 7.5), 10 mM MgCl2, and 0.01% Pluronic F-68. 4 nM KIF18A (1467) and the test compound were added to a 384-well plate and incubated at 37° C. for 20 mm. Then, 30 μM ATP was added to initiate the enzymatic reaction, and the plate was incubated at room temperature for 15 min. Finally, the ADP-Glo reagent was added to detect the luminescence intensity, where the luminescence intensity is directly proportional to the ADP content. Inhibition rate (%)=[…]. Sample signal is the value of the compound group, and DMSO signal is the value of the DMSO control group. Then, the inhibition rate at each concentration was calculated, and the IC50 was determined by fitting using the GraphPadPrism 7.0 software.

HCT-116 cells [1] = experiment: Detection of cell proliferation activity by CCK8 method (HCT-116); assay type: cell-based; conditions: CCK8, 96 h
From the text: (§1) This assay can be used to examine the potency of compounds in inhibiting the proliferation of tumor cells (OVCAR3, HT-29, BT-549, HCT-116). A lower IC50 value indicates high potency of the compound as a KIF18A inhibitor in the following assay setup,
(§2) McCoy's 5A medium purchased from Sangon Biotech; CCK8 kit purchased from Beyotime; OVCAR3, HT-29, HCT-116, and BT-549 cells purchased from Shanghai Fuheng Biotechnology Co., Ltd.; multimode microplate reader (Thermo).
(§3) Cells at the logarithmic growth phase were taken, digested with a cell lysis buffer (trypsin), centrifuged, counted, and seeded into a 96-well plate at an appropriate cell density (BT549: 1500 cells/well in 1640 medium. HT-29 and HCT-116: 2000 cells/well in McCoy's 5A medium), with 180 μL per well, for a total of 60 wells. The surrounding wells were filled with an equal amount of PBS to prevent water evaporation from the edge wells. The next day after cell plating, the test compounds at different concentration gradients (with an initial final concentration of 10 μM, diluted in a 1:5 gradient to obtain 9 concentration gradients) were added to the wells. Three replicate wells were set up for each concentration point, and a corresponding DMSO negative control group was also set up. Detection: After 96 h of drug treatment, the test cell culture plate was removed from the incubator. All the liquid in the 96-well plate was aspirated, and 100 μL of medium containing 10% CCK8 solution was added to each well. The plate was then incubated at 37° C. for 2 h (the OD450 of the DMSO group reached 1.5 or more), and the absorbance at 450 nm was measured using a microplate reader
(§4) After the background value was subtracted from the measurement for each well, the inhibition rate was calculated. Inhibition Rate (%)=(1−Sample/Vehicle)×100. Sample is the luminescence value of the drug treatment group, and Vehicle is the luminescence value of the DMSO control group. A sigmoidal dose-survival rate curve was plotted using a non-linear regression model in the GraphPad Prism 7.0 software, and the IC50 values were calculated.

HT-29 cells [2] = experiment: Mitotic index analysis, pH3 expression in HT-29 cells; assay type: cell-based, human; conditions: Homo sapiens, 24 h treatment
Method: (§5) HCT-116 and HT-29 cells at the logarithmic growth phase were taken, digested with a cell lysis buffer (trypsin), centrifuged, counted, and seeded into a 96-well plate at an appropriate cell density (20000 cells/well), with 100 μL per well. The surrounding wells were filled with an appropriate amount of PBS to prevent water evaporation. The next day, the cells were treated with the compounds at different concentrations (with a starting concentration of 10 μM, 3-fold diluted to obtain 9 concentration gradients). After 24 h, the medium was aspirated, and the cells were washed twice with 100 μL of PBS. The cells were then fixed with 4% paraformaldehyde and incubated at room temperature for 15 min. The fixative solution was discarded, and the cells were washed with PBS. Then, 150 μL of specialized blocking solution (containing 1% Triton-100) was added to each well for blocking at room temperature for 2 h, and the plate was washed with PBS to remove excess blocking solution. Anti-phistone H3 (pH3) was diluted at a ratio of 1:1000 with a blocking solution containing 0.033% Triton-100, and a blank control group was set up. Then, incubation was performed at 4° C. overnight. The next day, the plate was washed twice with 1×PBST. Anti-rabbit-IgG (H+L) (CST) and DRAQ5 (Thermofisher) were each diluted at an appropriate ratio with a blocking solution containing 0.033% Triton-100 (secondary antibody: 1:2000; DRAQ5: 1:10000). Then, incubation was performed at room temperature for 2 h. The plate was washed twice with 1×PBST and once with PBS. Fluorescence signals at 700 nm and 800 nm were detected using a Li—COR Odyssey two-color near-infrared laser imager. Calculation was performed as follows: pH3 expression (%)=(Cmpd dose/DMSO control)×100. Cmpd dose is the value of the drug treatment group, and DMSO control is the value of the DMSO control group. The EC50 values were determined by fitting using the GraphPad Prism 7.0 software.

BT-549 cells = experiment: Detection of cell proliferation activity by CCK8 method (BT-549); assay type: cell-based; conditions: CCK8, 96 h
From the text: as §1, §2, §3, §4

HCT-116 cells [3] = experiment: Mitotic index analysis, pH3 expression in HCT-116 cells; assay type: cell-based; conditions: 24 h treatment
Method: as §5

[4] = Pharmacokinetic test in mice; assay type: in vivo; conditions: BALB/c mice; for AUC / Cmax / half-life: mouse, plasma; for half-life: read-out: t½ (converted)
Method: In this example, the pharmacokinetic behavior of the compounds after intravenous injection (IV) and intragastric (PO) administration in BALB/c mice was tested.
On the day of administration, mice were weighed for actual body weight and the administration volume was calculated. Each compound was tested in two groups with 9 mice in each group; one group was subjected to administration by single intravenous injection, and the other group of mice was subjected to single intragastric administration. Whole blood samples were collected via the orbit at prescribed time points (0.25 h, 0.5 h, 1 h, 2 h, 4 h, 8 h, and 24 h after administration). After blood sample collection, the samples were immediately transferred to labeled commercial sample tubes containing K2-EDTA (0.85-1.15 mg), followed by centrifugation (3200×g, 4° C., 10 min) and plasma collection. The plasma was transferred to a pre-cooled centrifuge tube, frozen in dry ice, and then stored in an ultra-low temperature freezer at −60° C. or lower until the LC-MS/MS analysis.
Plasma concentrations were determined by the LC-MS/MS method. Plasma drug concentration data for the compounds were processed using a non-compartmental model in the WinNonlin Version 6.3 (Pharsight, Mountain View, CA) pharmacokinetic software. The relevant pharmacokinetic parameters were calculated by a linear-log trapezoidal method.

HT-29 cells [5] = experiment: Detection of cell proliferation activity by CCK8 method (HT-29); assay type: cell-based, human; conditions: CCK8, 96 h
From the text: as §1, §2, §3, §4

OVCAR3 cells [6] = experiment: Detection of cell proliferation activity by CCK8 method (OVCAR3); assay type: cell-based
From the text: as §1, §2, §3, §4

OVCAR3 cells [7] = experiment: Detection of OVCAR3 cell proliferation activity by CTG method; assay type: cell-based; conditions: Homo sapiens, OVCAR-3, 168 h, CellTiter-Glo, 7 days
From the text: as §1
1640 medium; fetal bovine serum; penicillin/streptomycin antibiotics purchased from Wisent; CellTiter-Glo (chemiluminescence detection reagent for cell viability) reagent purchased from Promega; OVCAR3 cell line purchased from Nanjing Cobioer Biosciences Co., Ltd.; Nivo multimode microplate reader (PerkinElmer),
OVCAR3 cells were seeded into a white 96-well plate, with 80 μL of cell suspension containing 2000 OVCAR3 cells added to each well. The cell plate was incubated in a CO2 incubator overnight.
A test compound was 5-fold diluted to the 8th concentration (i.e., from 2 mM to […]) using a multichannel pipette, with duplicate wells set up. To an intermediate plate was added 78 μL of medium, and the serially diluted compound was transferred to the corresponding wells of the intermediate plate at 2 μL/well. The mixture was mixed well and then transferred to the cell plate at 20 μL/well. The concentration of the compound transferred to the cell plate ranged from 10 μM to 0.026 nM. The cell plate was incubated in a CO2 incubator for 7 days. Another cell plate was prepared and read for signal values on the day of compound addition, and these values were used as the maximum values (the Max value in the equation below) in data analysis. To this cell plate was added the chemiluminescence detection reagent for cell viability at 25 μL/well, and the luminescence signals were stabilized by incubation at room temperature for 10 min. Readings were taken using the multimode microplate reader.
To the cell plate was added the chemiluminescence detection reagent for cell viability at 25 μL/well, and the luminescence signals were stabilized by incubation at room temperature for 10 mm. Readings were taken using the multimode microplate reader, […]

[8] = Homo sapiens, OVCAR-3, CCK8, 96 h

Chain of KIF18A (Q8NI77 1-467): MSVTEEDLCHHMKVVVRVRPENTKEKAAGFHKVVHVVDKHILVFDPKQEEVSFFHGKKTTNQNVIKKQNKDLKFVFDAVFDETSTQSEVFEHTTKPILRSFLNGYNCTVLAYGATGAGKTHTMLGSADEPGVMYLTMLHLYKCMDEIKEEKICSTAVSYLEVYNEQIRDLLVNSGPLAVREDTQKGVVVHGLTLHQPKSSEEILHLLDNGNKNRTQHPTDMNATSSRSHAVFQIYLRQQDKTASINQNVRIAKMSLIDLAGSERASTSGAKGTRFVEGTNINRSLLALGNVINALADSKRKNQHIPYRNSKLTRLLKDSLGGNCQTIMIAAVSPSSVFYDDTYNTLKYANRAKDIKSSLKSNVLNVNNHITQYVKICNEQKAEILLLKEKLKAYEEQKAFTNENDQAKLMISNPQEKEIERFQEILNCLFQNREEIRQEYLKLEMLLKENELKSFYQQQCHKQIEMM

| SMILES | IC50 (KIF18A) | IC50 (HCT-116 cells [1]; Homo sapiens) | EC50 (HT-29 cells [2]) | IC50 (BT-549 cells; Homo sapiens) | EC50 (HCT-116 cells [3]; Homo sapiens) | IC50 (HT-29 cells [5]; Homo sapiens) | IC50 (OVCAR3 cells [6]; [8]) | IC50 (OVCAR3 cells [7]) | also measured |
| --- | --- | --- | --- | --- | --- | --- | --- | --- | --- |
| CS(=O)(=O)Nc1ccc(C(=O)Nc2cn3cnnc3c(N3CCC(F)(F)CC3)n2)c(N2CC3CCC(C3)C2)c1 [Compound 65] | 0.0192 µM | > 10 µM | 0.02 µM | 0.0532 µM | > 10 µM | 0.0404 µM | 0.0146 µM | – | F ([4]; PO @5mpk): 82%; AUC ([4]; 5 mg/kg, PO @5mpk): 19.9 µM·h; Cmax ([4]; 5 mg/kg, PO @5mpk): 3.56 µM; half-life ([4]; 5 mg/kg, PO @5mpk): 3.9 h |
| CS(=O)(=O)Nc1ccc(C(=O)Nc2cc3cccnc3c(N3CCC(F)(F)CC3)n2)c(N2CC3CCC(C3)C2)c1 [Compound 33] | – | > 10 µM | 0.0585 µM | 0.118 µM | > 10 µM | 0.0842 µM | 0.0533 µM | 0.075 µM | F ([4]; PO @30mpk): 108%; AUC ([4]; 30 mg/kg, PO @30mpk): 126 µM·h; Cmax ([4]; 30 mg/kg, PO @30mpk): 6.31 µM; half-life ([4]; 30 mg/kg, PO @30mpk): 134 h |
| CS(=O)(=O)Nc1ccc(C(=O)Nc2cc3cn[nH]c3c(N3CCC(F)(F)CC3)n2)c(N2CC3CCC(C3)C2)c1 [Compound 69] | 0.026 µM | > 10 µM | 0.0048 µM | 0.0396 µM | > 10 µM | 0.0115 µM | 0.0065 µM | – | F ([4]; PO @30mpk): 385%; AUC ([4]; 30 mg/kg, PO @30mpk): 221 µM·h; Cmax ([4]; 30 mg/kg, PO @30mpk): 20.5 µM; half-life ([4]; 30 mg/kg, PO @30mpk): 8.2 h |
| O=C(Nc1cn2ccnc2c(N2CCC(F)(F)CC2)n1)c1ncc(NS(=O)(=O)CCO)cc1N1CCC2(CC1)CC2 [Compound 37] | 0.0113 µM | – | – | – | – | – | – | – | IC50 (HCT-116 cells [1]): > 10 µM; IC50 (BT-549 cells): 0.611 µM; EC50 (HCT-116 cells [3]): > 10 µM; IC50 (OVCAR3 cells [6]; CCK8, 96 h): 0.234 µM |
| O=C(Nc1cn2ccnc2c(N2CCC(F)(F)CC2)n1)c1cnc(NS(=O)(=O)CCO)cc1N1CCC2(CC1)CC2 [Compound 38] | 0.0076 µM | – | – | – | – | – | – | – | IC50 (HCT-116 cells [1]): > 10 µM; IC50 (BT-549 cells): 0.0319 µM; EC50 (HCT-116 cells [3]): > 10 µM; IC50 (HT-29 cells [5]): 0.133 µM; IC50 (OVCAR3 cells [6]; CCK8, 96 h): 0.0119 µM |
| O=C(Nc1cn2ccnc2c(N2CC3CCC(C3)C2)n1)c1ccc(NS(=O)(=O)CCO)cc1N1CCC2(CC1)CC2 [Compound 30] | – | > 10 µM | 0.0476 µM | 0.105 µM | > 10 µM | 0.0739 µM | 0.0304 µM | 0.0642 µM | – |
| CS(=O)(=O)Nc1ccc(C(=O)Nc2cc3cccnc3c(N3CCC(F)(F)CC3)n2)c(N2CCC3(CC2)CC3)c1 [Compound 32] | – | > 10 µM | 0.0618 µM | 0.0461 µM | > 10 µM | 0.0453 µM | 0.0224 µM | 0.0299 µM | – |
| O=C(Nc1cc2ncccc2c(N2CCC(F)(F)CC2)n1)c1ccc(NS(=O)(=O)CCO)cc1N1CCC2(CC1)CC2 [Compound 40] | 0.0629 µM | > 10 µM | – | 0.219 µM | > 10 µM | 0.177 µM | 0.0683 µM | – | – |
| CS(=O)(=O)Nc1ccc(C(=O)Nc2cc3nccnc3c(N3CCC(F)(F)CC3)n2)c(N2CCC3(CC2)CC3)c1 [Compound 70] | 0.0959 µM | > 10 µM | 0.0336 µM | 0.091 µM | > 10 µM | 0.0689 µM | 0.0315 µM | – | – |
